In patent US12281122B1, “PI3K inhibitors” (Cogent Biosciences, Inc., priority 2023, dated 2025):
pIC50: −log10 of the molar value.

Key:
PI3Kα = PI3Kα (Homo sapiens, UniProt P42336); test: PI3Kα enzyme assay (Transcreener ADP2 TR-FRET Red Assay); assay type: biochemical; details: purified recombinant full-length protein; 2 hours pre-incubation with compound; read-out: PI3Kα WT IC50
Description: (§1) Activity against PI3Kα and PI3Kα H1047R enzymes were determined in biochemical assays using purified recombinant full-length proteins with the Transcreener ADP^2 TR-FRET Red Assay from Bellbrook Labs. (Catalogue number 3011-10K). Test compounds were dissolved in DMSO and were tested in 11 point 1:3 serial dilutions, typical final concentration range from 50,000 nM to 0.85 nM. Enzymes were pre-incubated with compounds for 2 hours at room temperature prior to initiating the reactions. Assays were initiated with a 2×ATP/PI(4,5)P2 diC8 substrate mixture. After 60 minutes at room temperature, the reactions were quenched with detection reagent and incubated for an additional 60 minutes at room temperature. The plates were read using a multimode reader and the emission ratio of 665 nm to 615 nm was determined. This ratio was converted to percent of control (POC). [1-(high control-sample signal)/(high control-low control)]*100. Wells without compound were used to determine high control values and wells without enzyme were used to determine low control values. The POC values were fit using a four-parameter logistic model and the value where the fit curve was equal to 50 POC was reported as the IC50 using the Signals VitroVivo software package (PerkinElmer). Final assay conditions were: 40 mM HEPES pH 7.5, 20 mM NaCl, 25 mM MgCl2, 0.01% Triton X-100. The enzyme source, catalogue number, final enzyme concentration, and final ATP and PI(4,5)P2 diC8 concentration can be found in the table E10 below.

PI3Kα H1047R = PI3Kα H1047R (Homo sapiens, UniProt P42336, H1047R); test: PI3Kα H1047R enzyme assay (Transcreener ADP2 TR-FRET Red Assay); assay type: biochemical; details: purified recombinant full-length protein; 2 hours pre-incubation with compound
Description: as §1

[1] = test system: T47D (PI3Kα-H1047R) cell line; test: HTRF phospho-AKT(S473) cell assay in T47D cells; assay type: cell-based, human; details: Homo sapiens; T47D (PI3Kα-H1047R) cells, HTRF phospho-AKT(S473), 2 hours compound incubation
Outline: (§2)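 T47D (PI3Kα-H1047R; RPMI, 10% FBS, insulin) and SKBR3 (wild-type PI3Kα; McCoy's 5A, 10% FBS) cells treated 2 h at 37 °C with 12-point 1:3 dilutions, top 5 μM and 10 μM respectively, ≤0.5% DMSO. SKBR3 stimulated with 70 ng/ml PDGF-BB for the last 15 min; lysate pAKT(S473) by HTRF, IC50 from curves.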

[2] = test system: SKBR3 (PI3Kα-Wild Type) cell line; test: HTRF phospho-AKT(S473) cell assay in SKBR3 cells; assay type: cell-based, human; details: Homo sapiens, SK-BR-3; SKBR3 (PI3Kα-Wild Type) cells, HTRF phospho-AKT(S473), 2 hours compound incubation, PDGF-BB stimulated
Outline: as §2

PI3Kα, sequence (P42336 whole entry): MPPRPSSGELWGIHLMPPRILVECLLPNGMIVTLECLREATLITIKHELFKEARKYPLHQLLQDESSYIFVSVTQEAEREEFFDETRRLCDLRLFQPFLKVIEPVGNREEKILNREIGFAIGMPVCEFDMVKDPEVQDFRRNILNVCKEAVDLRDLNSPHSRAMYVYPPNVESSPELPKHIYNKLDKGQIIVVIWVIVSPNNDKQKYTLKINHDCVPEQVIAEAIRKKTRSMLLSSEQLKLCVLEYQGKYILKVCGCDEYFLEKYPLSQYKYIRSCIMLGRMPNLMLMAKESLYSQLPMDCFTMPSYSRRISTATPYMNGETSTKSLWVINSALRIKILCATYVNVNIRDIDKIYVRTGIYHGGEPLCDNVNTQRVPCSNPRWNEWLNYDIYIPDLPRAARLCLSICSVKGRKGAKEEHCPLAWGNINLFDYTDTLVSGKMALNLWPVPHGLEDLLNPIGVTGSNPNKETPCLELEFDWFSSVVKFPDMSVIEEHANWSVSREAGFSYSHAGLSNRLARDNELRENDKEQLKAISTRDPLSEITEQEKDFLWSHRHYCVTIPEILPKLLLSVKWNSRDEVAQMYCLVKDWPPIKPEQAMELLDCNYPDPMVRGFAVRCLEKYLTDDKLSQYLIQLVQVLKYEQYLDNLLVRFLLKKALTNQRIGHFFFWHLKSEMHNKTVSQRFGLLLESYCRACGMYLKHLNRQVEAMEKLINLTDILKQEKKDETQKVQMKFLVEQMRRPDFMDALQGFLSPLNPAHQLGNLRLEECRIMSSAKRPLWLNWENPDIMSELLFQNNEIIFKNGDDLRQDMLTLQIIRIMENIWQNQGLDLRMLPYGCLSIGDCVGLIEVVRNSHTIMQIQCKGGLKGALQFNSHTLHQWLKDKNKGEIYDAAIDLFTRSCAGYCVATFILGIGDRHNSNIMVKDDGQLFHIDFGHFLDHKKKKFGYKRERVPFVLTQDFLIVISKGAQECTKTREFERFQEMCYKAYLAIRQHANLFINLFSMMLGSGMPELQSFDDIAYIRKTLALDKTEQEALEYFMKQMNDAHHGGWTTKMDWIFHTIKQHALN
PI3Kα, sequence (P27986 2-724 partner): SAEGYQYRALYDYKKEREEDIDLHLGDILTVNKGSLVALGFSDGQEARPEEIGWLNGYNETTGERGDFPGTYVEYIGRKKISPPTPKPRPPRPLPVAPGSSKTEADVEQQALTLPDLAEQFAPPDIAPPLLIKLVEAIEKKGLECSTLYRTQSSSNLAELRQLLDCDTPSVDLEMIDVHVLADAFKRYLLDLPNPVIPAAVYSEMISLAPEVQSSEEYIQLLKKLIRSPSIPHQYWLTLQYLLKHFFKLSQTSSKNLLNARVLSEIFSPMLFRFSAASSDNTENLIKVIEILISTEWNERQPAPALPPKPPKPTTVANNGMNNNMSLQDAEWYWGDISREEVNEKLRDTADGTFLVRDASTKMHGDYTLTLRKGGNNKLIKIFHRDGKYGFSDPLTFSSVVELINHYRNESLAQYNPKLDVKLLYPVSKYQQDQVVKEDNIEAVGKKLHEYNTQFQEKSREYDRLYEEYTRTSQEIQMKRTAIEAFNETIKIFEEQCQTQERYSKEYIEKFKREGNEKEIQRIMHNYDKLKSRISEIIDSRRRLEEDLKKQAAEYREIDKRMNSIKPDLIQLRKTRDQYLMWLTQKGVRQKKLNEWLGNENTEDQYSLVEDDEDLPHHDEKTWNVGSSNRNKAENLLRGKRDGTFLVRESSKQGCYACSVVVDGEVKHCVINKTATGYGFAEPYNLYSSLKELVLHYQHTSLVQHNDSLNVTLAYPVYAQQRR
PI3Kα H1047R, sequence (P42336 whole entry H1047R): as the sequence (P42336 whole entry) above, with H1047R counted along it
PI3Kα H1047R, sequence (P27986 2-724 partner): as the sequence (P27986 2-724 partner) above

| Structure (SMILES) | pIC50 (PI3Kα) | pIC50 (PI3Kα H1047R) | pIC50 [1] | pIC50 [2] |
| --- | --- | --- | --- | --- |
| Cc1cc([C@@H](C)Nc2ccc(Cl)nc2C(=O)NS(C)(=O)=O)c2nc(NC3CCCC3)n(C)c(=O)c2c1 [Compound 11, (R)-6-chloro-3-((1-(2-(cyclopentylamino)-3,6-dimethyl-4-oxo-3,4-dihydroquinazolin-8-yl)ethyl)amino)-N-(methylsulfonyl) picolinamide] | ≤ 6.00 | 6.30 to 6.60 | 6.30 to 6.60 | ≤ 5.30 |
| Cc1cc([C@@H](C)Nc2ccc(Cl)nc2C(=O)NS(C)(=O)=O)c2nc(N(C)C34CC(C3)C4)n(C)c(=O)c2c1 [Compound 13, (R)-3-((1-(2-(bicyclo[1.1.1]pentan-1-yl(methyl)amino)-3,6-dimethyl-4-oxo-3,4-dihydroquinazolin-8-yl)ethyl)amino)-6-chloro-N-(methylsulfonyl) picolinamide] | ≤ 6.00 | 6.00 to 6.30 | 6.30 to 6.60 | 5.30 to 6.00 |
| Cc1cc([C@@H](C)Nc2ccc(Cl)nc2C(=O)NS(C)(=O)=O)c2nc(N(C)CC3CC3)n(C)c(=O)c2c1 [Compound 14, (R)-6-chloro-3-((1-(2-((cyclopropylmethyl) (methyl)amino)-3,6-dimethyl-4-oxo-3,4-dihydroquinazolin-8-yl)ethyl)amino)-N-(methylsulfonyl) picolinamide] | ≤ 6.00 | 6.30 to 6.60 | 6.30 to 6.60 | 5.30 to 6.00 |
| Cc1cc([C@@H](C)Nc2ccc(Cl)nc2C(=O)NS(C)(=O)=O)c2nc(N3CCC3)n(C)c(=O)c2c1 [Compound 15] | ≤ 6.00 | 6.30 to 6.60 | 6.30 to 6.60 | 5.30 to 6.00 |
| Cc1cc([C@@H](C)Nc2ccc(Cl)nc2C(=O)NS(C)(=O)=O)c2nc(N3CCCC3)n(C)c(=O)c2c1 [Compound 16] | ≤ 6.00 | 6.30 to 6.60 | 6.30 to 6.60 | 5.30 to 6.00 |
| Cc1cc([C@@H](C)Nc2ccc(Cl)nc2C(=O)NS(C)(=O)=O)c2nc(NCc3ccc(F)cc3C)n(C)c(=O)c2c1 [Compound 17, (R)-6-chloro-3-((1-(2-((4-fluoro-2-methylbenzyl)amino)-3,6-dimethyl-4-oxo-3,4-dihydroquinazolin-8-yl)ethyl)amino)-N-(methylsulfonyl) picolinamide] | ≤ 6.00 | ≤ 6.00 | 5.30 to 6.00 | ≤ 5.30 |
| Cc1cc([C@@H](C)Nc2ccc(Cl)nc2C(=O)NS(C)(=O)=O)c2nc(NCCC3CC3)n(C)c(=O)c2c1 [Compound 18, (R)-6-chloro-3-((1-(2-((2-cyclopropylethyl)amino)-3,6-dimethyl-4-oxo-3,4-dihydroquinazolin-8-yl)ethyl)amino)-N-(methylsulfonyl) picolinamide] | ≤ 6.00 | ≤ 6.00 | 5.30 to 6.00 | ≤ 5.30 |
| Cc1cc([C@@H](C)Nc2ccc(Cl)nc2C(=O)NS(C)(=O)=O)c2nc(NCC3CC(F)(F)C3)n(C)c(=O)c2c1 [Compound 20, (R)-6-chloro-3-((1-(2-(((3,3-difluorocyclobutyl)methyl)amino)-3,6-dimethyl-4-oxo-3,4-dihydroquinazolin-8-yl)ethyl)amino)-N-(methylsulfonyl) picolinamide] | ≤ 6.00 | ≤ 6.00 | 6.00 to 6.30 | 5.30 to 6.00 |
| C[C@@H](Nc1ccc(Cl)nc1C(=O)NS(C)(=O)=O)c1cccc2c(=O)n(C)c(N3Cc4ccc(F)cc4C3)nc12 [Compound 23, (R)-6-chloro-3-((1-(2-(5-fluoroisoindolin-2-yl)-3-methyl-4-oxo-3,4-dihydroquinazolin-8-yl)ethyl)amino)-N-(methylsulfonyl) picolinamide] | ≤ 6.00 | > 7.00 | 6.00 to 6.30 | 5.30 to 6.00 |
| Cc1cc([C@@H](C)Nc2ccc(Cl)nc2C(=O)NS(C)(=O)=O)c2nc(NCC3(C(F)(F)F)CC3)n(C)c(=O)c2c1 [Compound 24, (R)-6-chloro-3-((1-(3,6-dimethyl-4-oxo-2-(((1-(trifluoromethyl)cyclopropyl)methyl)amino)-3,4-dihydroquinazolin-8-yl)ethyl)amino)-N-(methylsulfonyl) picolinamide] | ≤ 6.00 | 6.30 to 6.60 | 6.30 to 6.60 | 5.30 to 6.00 |
| Cc1cc([C@@H](C)Nc2ccc(Cl)nc2C(=O)NS(C)(=O)=O)c2nc(N3C[C@H](C)O[C@@H](C)C3)n(C)c(=O)c2c1 [Compound 25, 6-chloro-3-(((R)-1-(2-((2S,6S)-2,6-dimethylmorpholino)-3,6-dimethyl-4-oxo-3,4-dihydroquinazolin-8-yl)ethyl)amino)-N-(methylsulfonyl) picolinamide] | ≤ 6.00 | ≤ 6.00 | 6.30 to 6.60 | 5.30 to 6.00 |
| Cc1cc([C@@H](C)Nc2ccc(Cl)nc2C(=O)NS(C)(=O)=O)c2nc(N3C[C@H]4C[C@@H]3CO4)n(C)c(=O)c2c1 [Compound 26, 3-(((R)-1-(2-((1R,4R)-2-oxa-5-azabicyclo[2.2.1]heptan-5-yl)-3,6-dimethyl-4-oxo-3,4-dihydroquinazolin-8-yl)ethyl)amino)-6-chloro-N-(methylsulfonyl) picolinamide] | ≤ 6.00 | 6.00 to 6.30 | > 6.60 | 5.30 to 6.00 |
| Cc1cc([C@@H](C)Nc2ccc(Cl)nc2C(=O)NS(C)(=O)=O)c2nc(N3C[C@@H]4C[C@H]3CO4)n(C)c(=O)c2c1 [Compound 27, 3-(((R)-1-(2-((1S,4S)-2-oxa-5-azabicyclo[2.2.1]heptan-5-yl)-3,6-dimethyl-4-oxo-3,4-dihydroquinazolin-8-yl)ethyl)amino)-6-chloro-N-(methylsulfonyl) picolinamide] | ≤ 6.00 | 6.00 to 6.30 | > 6.60 | 5.30 to 6.00 |
| C[C@@H](Nc1ccc(Cl)nc1C(=O)NS(C)(=O)=O)c1cc(F)cc2c(=O)n(C)c(N3Cc4cnn(C)c4C3)nc12 [Compound 28, (R)-6-chloro-3-((1-(6-fluoro-3-methyl-2-(1-methyl-4,6-dihydropyrrolo[3,4-c]pyrazol-5(1H)-yl)-4-oxo-3,4-dihydroquinazolin-8-yl)ethyl)amino)-N-(methylsulfonyl) picolinamide] | ≤ 6.00 | 6.00 to 6.30 | > 6.60 | 5.30 to 6.00 |
| C[C@@H](Nc1ccc(Cl)nc1C(=O)NS(C)(=O)=O)c1cc(F)cc2c(=O)n(C)c(N3CC4CC4C3)nc12 (stereo partly drawn) [Compound 29, 3-(((1R)-1-(2-(3-azabicyclo[3.1.0]hexan-3-yl)-6-fluoro-3-methyl-4-oxo-3,4-dihydroquinazolin-8-yl)ethyl)amino)-6-chloro-N-(methylsulfonyl) picolinamide] | ≤ 6.00 | 6.30 to 6.60 | 6.30 to 6.60 | 5.30 to 6.00 |
| C[C@@H](Nc1ccc(Cl)nc1C(=O)NS(C)(=O)=O)c1cc(F)cc2c(=O)n(C)c(N3CCc4c(cnn4C)C3)nc12 [Compound 30, (R)-6-chloro-3-((1-(6-fluoro-3-methyl-2-(1-methyl-1,4,6,7-tetrahydro-5H-pyrazolo[4,3-c]pyridin-5-yl)-4-oxo-3,4-dihydroquinazolin-8-yl)ethyl)amino)-N-(methylsulfonyl) picolinamide] | ≤ 6.00 | 6.60 to 7.00 | > 6.60 | 5.30 to 6.00 |
| C[C@@H](Nc1ccc(Cl)nc1C(=O)NS(C)(=O)=O)c1cc(F)cc2c(=O)n(C)c(N3CCc4ccccc4C3)nc12 [Compound 31, (R)-6-chloro-3-((1-(2-(3,4-dihydroisoquinolin-2(1H)-yl)-6-fluoro-3-methyl-4-oxo-3,4-dihydroquinazolin-8-yl)ethyl)amino)-N-(methylsulfonyl) picolinamide] | ≤ 6.00 | 6.60 to 7.00 | 6.30 to 6.60 | 5.30 to 6.00 |
| C[C@@H](Nc1ccc(Cl)nc1C(=O)NS(C)(=O)=O)c1cc(F)cc2c(=O)n(C)c(N3Cc4cccnc4C3)nc12 [Compound 32, (R)-6-chloro-3-((1-(2-(5,7-dihydro-6H-pyrrolo[3,4-b]pyridin-6-yl)-6-fluoro-3-methyl-4-oxo-3,4-dihydroquinazolin-8-yl)ethyl)amino)-N-(methylsulfonyl) picolinamide] | 6.00 to 6.30 | 6.30 to 6.60 | 6.30 to 6.60 | 5.30 to 6.00 |
| Cc1cc([C@@H](C)Nc2ccc(Cl)nc2C(=O)NS(C)(=O)=O)c2nc(N3CCC4(CCOCC4)C3)n(C)c(=O)c2c1 [Compound 33, (R)-6-chloro-3-((1-(3,6-dimethyl-4-oxo-2-(8-oxa-2-azaspiro[4.5]decan-2-yl)-3,4-dihydroquinazolin-8-yl)ethyl)amino)-N-(methylsulfonyl) picolinamide] | ≤ 6.00 | 6.30 to 6.60 | 6.30 to 6.60 | 5.30 to 6.00 |
